According to PubChem BioAssay (NCI):
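How tested: cells in 96-well plates exposed to compound for 48 hours at five concentrations. At the TGI there is no net growth.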

What follows are compounds tested on T-47D breast (assay: NCI anticancer screen, dose series, 48 h).

Row | Structure (SMILES) | TGI
1 | OC1[C@@H]2[C@@H](O)[C@H](O)[C@@H](O)N2C[C@@H]1O (stereo partly specified) | > 100 µM
2 | C=C1C(=O)C[C@H]2C(=C)C(=O)O[C@@H]2C2C1CC[C@@]2(C)O (stereo partly specified) | 68.8 µM
3 | O=C(NC(Cc1c[nH]c2ccccc12)C(=O)Nc1ccc(Br)cc1)OCc1ccccc1 (stereo unspecified) | 53 µM
4 | COC(=O)C1=C(C)NC2=C(C(=O)c3ccccc32)C1c1cn(-c2ccccc2)nc1-c1ccccc1 (stereo unspecified) | > 100 µM
5 | Cc1cc(C)n2nc3nc(N)c(C#N)c(-c4ccccc4)c3c2n1 | > 100 µM
6 | CC(C)(Cl)C(Br)CCC(C)(Cl)C(Br)CBr (stereo unspecified) | 81.3 µM
7 | O=C(NCC(=O)N1CCCC1C(=O)OC(=O)C1CCCN1C(=O)CNC(=O)OCc1ccccc1)OCc1ccccc1 (stereo unspecified) | > 100 µM
8 | CC(C)CC1C(=O)NCCC(NC(=O)C(Cc2ccc(OC(C)(C)C)cc2)NC(=O)OC(C)(C)C)C(=O)NC(Cc2ccccc2)C(=O)NC(Cc2ccccc2)NC1=O (stereo unspecified) | 22.2 µM
9 | N#Cc1nc2ccccc2nc1N1CCN(c2ccc([N+](=O)[O-])cc2)CC1 | > 100 µM
10 | COC(=O)c1cc2c3c(ccc2[nH]1)N(C(=O)c1cc2cc(OC)c(OC)c(OC)c2[nH]1)CC3CCl (stereo unspecified) | > 100 µM
11 | Nc1ccc(Oc2ccc(C34CC5CC6C3CC3CC4C(C5)C6(c4ccc(Oc5ccc(N)cc5)cc4)C3)cc2)cc1 | > 81.5 µM
12 | Cc1cc2c(cc1Cl)SC(NS(=O)(=O)c1ccc(Cl)cc1)=NS2(=O)=O | > 100 µM
13 | COCC1OC(Sc2ccccc2)C(O)C(OC)C1OC (stereo unspecified) | > 100 µM
14 | CC1(C)CC(=O)c2[nH]c3ccccc3c2CC(=O)NCCc2cn1cn2 | > 100 µM
15 | COC(=O)CCC1=CCC2(SC)C(=O)Nc3cccc1c32 (stereo unspecified) | > 100 µM
16 | O=C1C2CC=CCC2C(=O)N1n1c(Cc2ccc(Cl)cc2)n[nH]c1=O (stereo unspecified) | > 100 µM
17 | Nc1ccc(-c2nc3cc(F)ccc3s2)cc1Cl | > 70.1 µM
18 | Oc1c(C2=NNC(c3ccc(Cl)cc3Cl)C2)ccc2ccccc12 (stereo unspecified) | > 100 µM
19 | CCCCC1=NNC(=O)C1 | > 100 µM

What follows are compounds tested on HCC-2998 colon (assay: NCI anticancer screen, dose series, 48 h).

Row | Structure (SMILES) | TGI
20 | OC1[C@@H]2[C@@H](O)[C@H](O)[C@@H](O)N2C[C@@H]1O (stereo partly specified) | > 100 µM
21 | C=C1C(=O)C[C@H]2C(=C)C(=O)O[C@@H]2C2C1CC[C@@]2(C)O (stereo partly specified) | 38.1 µM
22 | O=C(NC(Cc1c[nH]c2ccccc12)C(=O)Nc1ccc(Br)cc1)OCc1ccccc1 (stereo unspecified) | 23.1 µM
23 | COC(=O)C1=C(C)NC2=C(C(=O)c3ccccc32)C1c1cn(-c2ccccc2)nc1-c1ccccc1 (stereo unspecified) | > 100 µM
24 | Cc1cc(C)n2nc3nc(N)c(C#N)c(-c4ccccc4)c3c2n1 | > 100 µM
25 | CC(C)(Cl)C(Br)CCC(C)(Cl)C(Br)CBr (stereo unspecified) | > 100 µM
26 | O=C(NCC(=O)N1CCCC1C(=O)OC(=O)C1CCCN1C(=O)CNC(=O)OCc1ccccc1)OCc1ccccc1 (stereo unspecified) | > 100 µM
27 | CC(C)CC1C(=O)NCCC(NC(=O)C(Cc2ccc(OC(C)(C)C)cc2)NC(=O)OC(C)(C)C)C(=O)NC(Cc2ccccc2)C(=O)NC(Cc2ccccc2)NC1=O (stereo unspecified) | 35.4 µM
28 | N#Cc1nc2ccccc2nc1N1CCN(c2ccc([N+](=O)[O-])cc2)CC1 | > 100 µM
29 | COC(=O)c1cc2c3c(ccc2[nH]1)N(C(=O)c1cc2cc(OC)c(OC)c(OC)c2[nH]1)CC3CCl (stereo unspecified) | > 100 µM
30 | Nc1ccc(Oc2ccc(C34CC5CC6C3CC3CC4C(C5)C6(c4ccc(Oc5ccc(N)cc5)cc4)C3)cc2)cc1 | 38.9 µM
31 | COCC1OC(Sc2ccccc2)C(O)C(OC)C1OC (stereo unspecified) | > 100 µM
32 | CC1(C)CC(=O)c2[nH]c3ccccc3c2CC(=O)NCCc2cn1cn2 | > 100 µM
33 | COC(=O)CCC1=CCC2(SC)C(=O)Nc3cccc1c32 (stereo unspecified) | > 100 µM
34 | O=C1C2CC=CCC2C(=O)N1n1c(Cc2ccc(Cl)cc2)n[nH]c1=O (stereo unspecified) | > 100 µM
35 | Nc1ccc(-c2nc3cc(F)ccc3s2)cc1Cl | 0.0255 µM
36 | Oc1c(C2=NNC(c3ccc(Cl)cc3Cl)C2)ccc2ccccc12 (stereo unspecified) | > 100 µM
37 | CCCCC1=NNC(=O)C1 | > 100 µM

What follows are compounds tested on MOLT-4 leukemia (assay: NCI anticancer screen, dose series, 48 h).

Row | Structure (SMILES) | TGI
38 | OC1[C@@H]2[C@@H](O)[C@H](O)[C@@H](O)N2C[C@@H]1O (stereo partly specified) | > 100 µM
39 | C=C1C(=O)C[C@H]2C(=C)C(=O)O[C@@H]2C2C1CC[C@@]2(C)O (stereo partly specified) | > 100 µM
40 | O=C(NC(Cc1c[nH]c2ccccc12)C(=O)Nc1ccc(Br)cc1)OCc1ccccc1 (stereo unspecified) | 38.9 µM
41 | COC(=O)C1=C(C)NC2=C(C(=O)c3ccccc32)C1c1cn(-c2ccccc2)nc1-c1ccccc1 (stereo unspecified) | 44.6 µM
42 | Cc1cc(C)n2nc3nc(N)c(C#N)c(-c4ccccc4)c3c2n1 | > 100 µM
43 | CC(C)(Cl)C(Br)CCC(C)(Cl)C(Br)CBr (stereo unspecified) | > 100 µM
44 | O=C(NCC(=O)N1CCCC1C(=O)OC(=O)C1CCCN1C(=O)CNC(=O)OCc1ccccc1)OCc1ccccc1 (stereo unspecified) | 67.1 µM
45 | CC(C)CC1C(=O)NCCC(NC(=O)C(Cc2ccc(OC(C)(C)C)cc2)NC(=O)OC(C)(C)C)C(=O)NC(Cc2ccccc2)C(=O)NC(Cc2ccccc2)NC1=O (stereo unspecified) | 3.48 µM
46 | N#Cc1nc2ccccc2nc1N1CCN(c2ccc([N+](=O)[O-])cc2)CC1 | 1.05 µM
47 | COC(=O)c1cc2c3c(ccc2[nH]1)N(C(=O)c1cc2cc(OC)c(OC)c(OC)c2[nH]1)CC3CCl (stereo unspecified) | > 100 µM
48 | Nc1ccc(Oc2ccc(C34CC5CC6C3CC3CC4C(C5)C6(c4ccc(Oc5ccc(N)cc5)cc4)C3)cc2)cc1 | 28.3 µM
49 | Cc1cc2c(cc1Cl)SC(NS(=O)(=O)c1ccc(Cl)cc1)=NS2(=O)=O | 73 µM
50 | COCC1OC(Sc2ccccc2)C(O)C(OC)C1OC (stereo unspecified) | > 100 µM
51 | CC1(C)CC(=O)c2[nH]c3ccccc3c2CC(=O)NCCc2cn1cn2 | > 100 µM
52 | COC(=O)CCC1=CCC2(SC)C(=O)Nc3cccc1c32 (stereo unspecified) | > 100 µM
53 | O=C1C2CC=CCC2C(=O)N1n1c(Cc2ccc(Cl)cc2)n[nH]c1=O (stereo unspecified) | > 100 µM
54 | Nc1ccc(-c2nc3cc(F)ccc3s2)cc1Cl | > 100 µM
55 | Oc1c(C2=NNC(c3ccc(Cl)cc3Cl)C2)ccc2ccccc12 (stereo unspecified) | 31.4 µM
56 | CCCCC1=NNC(=O)C1 | > 100 µM

Each compound was assayed on HCT-116 colon (assay: NCI anticancer screen, dose series, 48 h).

Row | Structure (SMILES) | TGI
57 | OC1[C@@H]2[C@@H](O)[C@H](O)[C@@H](O)N2C[C@@H]1O (stereo partly specified) | > 100 µM
58 | C=C1C(=O)C[C@H]2C(=C)C(=O)O[C@@H]2C2C1CC[C@@]2(C)O (stereo partly specified) | > 100 µM
59 | O=C(NC(Cc1c[nH]c2ccccc12)C(=O)Nc1ccc(Br)cc1)OCc1ccccc1 (stereo unspecified) | 23.7 µM
60 | COC(=O)C1=C(C)NC2=C(C(=O)c3ccccc32)C1c1cn(-c2ccccc2)nc1-c1ccccc1 (stereo unspecified) | > 100 µM
61 | Cc1cc(C)n2nc3nc(N)c(C#N)c(-c4ccccc4)c3c2n1 | > 100 µM
62 | CC(C)(Cl)C(Br)CCC(C)(Cl)C(Br)CBr (stereo unspecified) | 47.5 µM
63 | O=C(NCC(=O)N1CCCC1C(=O)OC(=O)C1CCCN1C(=O)CNC(=O)OCc1ccccc1)OCc1ccccc1 (stereo unspecified) | > 100 µM
64 | CC(C)CC1C(=O)NCCC(NC(=O)C(Cc2ccc(OC(C)(C)C)cc2)NC(=O)OC(C)(C)C)C(=O)NC(Cc2ccccc2)C(=O)NC(Cc2ccccc2)NC1=O (stereo unspecified) | 17.4 µM
65 | N#Cc1nc2ccccc2nc1N1CCN(c2ccc([N+](=O)[O-])cc2)CC1 | > 100 µM
66 | COC(=O)c1cc2c3c(ccc2[nH]1)N(C(=O)c1cc2cc(OC)c(OC)c(OC)c2[nH]1)CC3CCl (stereo unspecified) | > 100 µM
67 | Nc1ccc(Oc2ccc(C34CC5CC6C3CC3CC4C(C5)C6(c4ccc(Oc5ccc(N)cc5)cc4)C3)cc2)cc1 | 41.1 µM
68 | Cc1cc2c(cc1Cl)SC(NS(=O)(=O)c1ccc(Cl)cc1)=NS2(=O)=O | > 100 µM
69 | COCC1OC(Sc2ccccc2)C(O)C(OC)C1OC (stereo unspecified) | > 100 µM
70 | CC1(C)CC(=O)c2[nH]c3ccccc3c2CC(=O)NCCc2cn1cn2 | > 100 µM
71 | COC(=O)CCC1=CCC2(SC)C(=O)Nc3cccc1c32 (stereo unspecified) | > 100 µM
72 | O=C1C2CC=CCC2C(=O)N1n1c(Cc2ccc(Cl)cc2)n[nH]c1=O (stereo unspecified) | > 100 µM
73 | Nc1ccc(-c2nc3cc(F)ccc3s2)cc1Cl | > 100 µM
74 | Oc1c(C2=NNC(c3ccc(Cl)cc3Cl)C2)ccc2ccccc12 (stereo unspecified) | > 100 µM
75 | CCCCC1=NNC(=O)C1 | > 100 µM

These compounds were tested on 786-0 renal (assay: NCI anticancer screen, dose series, 48 h).

Row | Structure (SMILES) | TGI
76 | OC1[C@@H]2[C@@H](O)[C@H](O)[C@@H](O)N2C[C@@H]1O (stereo partly specified) | > 100 µM
77 | C=C1C(=O)C[C@H]2C(=C)C(=O)O[C@@H]2C2C1CC[C@@]2(C)O (stereo partly specified) | 77.7 µM
78 | O=C(NC(Cc1c[nH]c2ccccc12)C(=O)Nc1ccc(Br)cc1)OCc1ccccc1 (stereo unspecified) | 25.2 µM
79 | COC(=O)C1=C(C)NC2=C(C(=O)c3ccccc32)C1c1cn(-c2ccccc2)nc1-c1ccccc1 (stereo unspecified) | > 100 µM
80 | Cc1cc(C)n2nc3nc(N)c(C#N)c(-c4ccccc4)c3c2n1 | > 100 µM
81 | CC(C)(Cl)C(Br)CCC(C)(Cl)C(Br)CBr (stereo unspecified) | 61.9 µM
82 | O=C(NCC(=O)N1CCCC1C(=O)OC(=O)C1CCCN1C(=O)CNC(=O)OCc1ccccc1)OCc1ccccc1 (stereo unspecified) | > 100 µM
83 | CC(C)CC1C(=O)NCCC(NC(=O)C(Cc2ccc(OC(C)(C)C)cc2)NC(=O)OC(C)(C)C)C(=O)NC(Cc2ccccc2)C(=O)NC(Cc2ccccc2)NC1=O (stereo unspecified) | 4.92 µM
84 | N#Cc1nc2ccccc2nc1N1CCN(c2ccc([N+](=O)[O-])cc2)CC1 | > 100 µM
85 | COC(=O)c1cc2c3c(ccc2[nH]1)N(C(=O)c1cc2cc(OC)c(OC)c(OC)c2[nH]1)CC3CCl (stereo unspecified) | > 52.6 µM
86 | Nc1ccc(Oc2ccc(C34CC5CC6C3CC3CC4C(C5)C6(c4ccc(Oc5ccc(N)cc5)cc4)C3)cc2)cc1 | 45.2 µM
87 | Cc1cc2c(cc1Cl)SC(NS(=O)(=O)c1ccc(Cl)cc1)=NS2(=O)=O | > 100 µM
88 | COCC1OC(Sc2ccccc2)C(O)C(OC)C1OC (stereo unspecified) | > 100 µM
89 | CC1(C)CC(=O)c2[nH]c3ccccc3c2CC(=O)NCCc2cn1cn2 | > 100 µM
90 | COC(=O)CCC1=CCC2(SC)C(=O)Nc3cccc1c32 (stereo unspecified) | > 100 µM
91 | O=C1C2CC=CCC2C(=O)N1n1c(Cc2ccc(Cl)cc2)n[nH]c1=O (stereo unspecified) | > 100 µM
